Measurements taken from PubChem BioAssay (NCI).
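All cell lines were grown in 96-well plates and treated with compound for 48 hours. The concentration for full growth arrest is given as TGI.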

Experiments:
Test in all cases: NCI anticancer screen, dose series, 48 h
UACC-62 melanoma = system: UACC-62 melanoma
786-0 renal = system: 786-0 renal
MCF7 breast = system: MCF7 breast
SF-539 CNS = system: SF-539 CNS
CCRF-CEM leukemia = system: CCRF-CEM leukemia
NCI-H23 lung = system: NCI-H23 lung
ACHN renal = system: ACHN renal
HL-60(TB) leukemia = system: HL-60(TB) leukemia
SNB-19 CNS = system: SNB-19 CNS
SN12C renal = system: SN12C renal
SK-OV-3 ovarian = system: SK-OV-3 ovarian
HCT-116 colon = system: HCT-116 colon
MDA-MB-231 breast = system: MDA-MB-231 breast
SK-MEL-2 melanoma = system: SK-MEL-2 melanoma
OVCAR-8 ovarian = system: OVCAR-8 ovarian
K-562 leukemia = system: K-562 leukemia
OVCAR-4 ovarian = system: OVCAR-4 ovarian
DU-145 prostate = system: DU-145 prostate
HS 578T breast = system: HS 578T breast
SR leukemia = system: SR leukemia
MDA-N = system: MDA-N
NCI-H226 lung = system: NCI-H226 lung
A498 renal = system: A498 renal
SF-295 CNS = system: SF-295 CNS
KM12 colon = system: KM12 colon
SF-268 CNS = system: SF-268 CNS
UO-31 renal = system: UO-31 renal
NCI-H522 lung = system: NCI-H522 lung
CAKI-1 renal = system: CAKI-1 renal
HCT-15 colon = system: HCT-15 colon
SK-MEL-28 melanoma = system: SK-MEL-28 melanoma
HOP-92 NSCLC = system: HOP-92 NSCLC
HOP-62 NSCLC = system: HOP-62 NSCLC
HT29 colon = system: HT29 colon
OVCAR-5 ovarian = system: OVCAR-5 ovarian
NCI/ADR-RES ovarian = system: NCI/ADR-RES ovarian
U251 CNS = system: U251 CNS
NCI-H460 lung = system: NCI-H460 lung
MOLT-4 leukemia = system: MOLT-4 leukemia
RXF 393 renal = system: RXF 393 renal
M14 melanoma = system: M14 melanoma
PC-3 prostate = system: PC-3 prostate
IGROV1 ovarian = system: IGROV1 ovarian
MDA-MB-435 = system: MDA-MB-435
BT-549 breast = system: BT-549 breast
MALME-3M melanoma = system: MALME-3M melanoma
LOX IMVI melanoma = system: LOX IMVI melanoma
SK-MEL-5 melanoma = system: SK-MEL-5 melanoma
A549 NSCLC = system: A549 NSCLC
COLO 205 colon = system: COLO 205 colon
EKVX NSCLC = system: EKVX NSCLC
OVCAR-3 ovarian = system: OVCAR-3 ovarian
SW-620 colon = system: SW-620 colon
HCC-2998 colon = system: HCC-2998 colon
RPMI-8226 leukemia = system: RPMI-8226 leukemia
TK-10 renal = system: TK-10 renal
UACC-257 melanoma = system: UACC-257 melanoma
SNB-75 CNS = system: SNB-75 CNS

Question: Which results are given for CCOc1cc2c(cc1O)CC[C@@H]1[C@@H]2CC[C@]2(C)[C@@H](O)CC[C@@H]12?
Answer: TGI (UACC-62 melanoma): 19.7 µM; TGI (786-0 renal): 47.1 µM; TGI (MCF7 breast): 56.4 µM; TGI (SF-539 CNS): 42.6 nM; TGI (CCRF-CEM leukemia): 11.9 µM; TGI (NCI-H23 lung): 24.9 µM; TGI (ACHN renal): > 96.1 µM; TGI (HL-60(TB) leukemia): 352 nM; TGI (SNB-19 CNS): 7.13 µM; TGI (SN12C renal): 46.3 µM; TGI (SK-OV-3 ovarian): 77.3 µM; TGI (HCT-116 colon): 6.63 µM; TGI (MDA-MB-231 breast): 6.67 µM; TGI (SK-MEL-2 melanoma): 64.8 µM; TGI (OVCAR-8 ovarian): 33.5 µM; TGI (K-562 leukemia): 6.24 µM; TGI (OVCAR-4 ovarian): > 100 µM; TGI (DU-145 prostate): 9.15 µM; TGI (HS 578T breast): > 82.8 µM; TGI (SR leukemia): 1020 nM; TGI (MDA-N): < 0.0198 µM; TGI (NCI-H226 lung): 3.95 µM; TGI (A498 renal): 20 µM; TGI (SF-295 CNS): 5.87 µM; TGI (KM12 colon): 10.8 µM; TGI (SF-268 CNS): 48.5 µM; TGI (UO-31 renal): 63.1 µM; TGI (NCI-H522 lung): 19.7 nM; TGI (CAKI-1 renal): 52.9 µM; TGI (HCT-15 colon): 27.2 µM; TGI (SK-MEL-28 melanoma): 77.5 µM; TGI (HOP-92 NSCLC): 29.6 µM; TGI (HOP-62 NSCLC): 15.1 µM; TGI (HT29 colon): 17.4 µM; TGI (OVCAR-5 ovarian): 98.2 µM; TGI (NCI/ADR-RES ovarian): 8.98 µM; TGI (U251 CNS): 19.3 µM; TGI (NCI-H460 lung): 23 µM; TGI (MOLT-4 leukemia): 11.6 µM; TGI (RXF 393 renal): 816 nM; TGI (M14 melanoma): 3.16 µM; TGI (PC-3 prostate): 40.8 µM; TGI (IGROV1 ovarian): 56.1 µM; TGI (MDA-MB-435): 76.1 nM; TGI (BT-549 breast): 18.3 µM; TGI (MALME-3M melanoma): 50 µM; TGI (LOX IMVI melanoma): 21 µM; TGI (SK-MEL-5 melanoma): 2480 nM; TGI (A549 NSCLC): 48.1 µM; TGI (COLO 205 colon): 33.5 µM; TGI (EKVX NSCLC): 48 µM; TGI (OVCAR-3 ovarian): 760 nM; TGI (SW-620 colon): > 100 µM; TGI (HCC-2998 colon): 5.51 µM; TGI (RPMI-8226 leukemia): 7.86 µM

Question: For Cn1c(=O)n2n(c1=O)C(S(=O)c1ccccc1)C2 (centres undefined), which TGI (TK-10 renal) is on record?
Answer: The TGI was over 100 µM.

Question: And the TGI (UACC-62 melanoma)?
Answer: Its TGI is over 100 µM.

Question: What about the TGI (786-0 renal) of the same compound?
Answer: Its TGI is over 100 µM.

Question: What about the TGI (MCF7 breast) of the same compound?
Answer: The TGI was over 100 µM.

Question: And the TGI (SF-539 CNS)?
Answer: The TGI was over 100000 nM.

Question: What about the TGI (CCRF-CEM leukemia) of the same compound?
Answer: Its TGI is over 100 µM.

Question: What about the TGI (NCI-H23 lung) of the same compound?
Answer: Its TGI is over 100 µM.

Question: What about the TGI (ACHN renal) of the same compound?
Answer: The TGI was over 100 µM.

Question: And the TGI (SNB-19 CNS)?
Answer: The TGI was over 100 µM.

Question: What about the TGI (SN12C renal) of the same compound?
Answer: Its TGI is over 100 µM.

Question: What about the TGI (SK-OV-3 ovarian) of the same compound?
Answer: The TGI was over 100 µM.

Question: And the TGI (HCT-116 colon)?
Answer: Its TGI is over 100 µM.

Question: What about the TGI (MDA-MB-231 breast) of the same compound?
Answer: The TGI was over 100 µM.

Question: What about the TGI (SK-MEL-2 melanoma) of the same compound?
Answer: The TGI was over 100 µM.

Question: What about the TGI (OVCAR-8 ovarian) of the same compound?
Answer: Its TGI is over 100 µM.

Question: What about the TGI (K-562 leukemia) of the same compound?
Answer: Its TGI is over 100 µM.

Question: What about the TGI (OVCAR-4 ovarian) of the same compound?
Answer: Its TGI is over 100 µM.

Question: And the TGI (DU-145 prostate)?
Answer: The TGI was over 100 µM.

Question: What about the TGI (HS 578T breast) of the same compound?
Answer: Its TGI is over 100 µM.

Question: And the TGI (SR leukemia)?
Answer: Its TGI is over 100000 nM.

Question: And the TGI (MDA-N)?
Answer: Its TGI is over 100 µM.

Question: What about the TGI (SF-295 CNS) of the same compound?
Answer: Its TGI is over 100 µM.

Question: And the TGI (KM12 colon)?
Answer: Its TGI is over 100 µM.

Question: What about the TGI (SF-268 CNS) of the same compound?
Answer: The TGI was over 100 µM.

Question: What about the TGI (UO-31 renal) of the same compound?
Answer: Its TGI is over 100 µM.

Question: What about the TGI (UACC-257 melanoma) of the same compound?
Answer: The TGI was over 100 µM.

Question: And the TGI (NCI-H522 lung)?
Answer: The TGI was over 100000 nM.

Question: And the TGI (CAKI-1 renal)?
Answer: Its TGI is over 100 µM.

Question: What about the TGI (HCT-15 colon) of the same compound?
Answer: The TGI was over 100 µM.

Question: What about the TGI (SK-MEL-28 melanoma) of the same compound?
Answer: Its TGI is over 100 µM.

Question: And the TGI (HOP-92 NSCLC)?
Answer: The TGI was over 100 µM.

Question: And the TGI (HOP-62 NSCLC)?
Answer: Its TGI is over 100 µM.

Question: What about the TGI (HT29 colon) of the same compound?
Answer: The TGI was over 100 µM.

Question: What about the TGI (OVCAR-5 ovarian) of the same compound?
Answer: Its TGI is over 100 µM.

Question: And the TGI (NCI/ADR-RES ovarian)?
Answer: The TGI was over 100 µM.

Question: What about the TGI (U251 CNS) of the same compound?
Answer: Its TGI is over 100 µM.

Question: And the TGI (NCI-H460 lung)?
Answer: Its TGI is over 100 µM.

Question: And the TGI (MOLT-4 leukemia)?
Answer: Its TGI is over 100 µM.

Question: And the TGI (RXF 393 renal)?
Answer: The TGI was over 100000 nM.

Question: And the TGI (SNB-75 CNS)?
Answer: Its TGI is over 100 µM.

Question: And the TGI (M14 melanoma)?
Answer: Its TGI is over 100 µM.

Question: And the TGI (PC-3 prostate)?
Answer: Its TGI is over 100 µM.

Question: What about the TGI (IGROV1 ovarian) of the same compound?
Answer: The TGI was over 100 µM.

Question: And the TGI (MDA-MB-435)?
Answer: Its TGI is over 100000 nM.

Question: And the TGI (BT-549 breast)?
Answer: Its TGI is over 100 µM.

Question: And the TGI (LOX IMVI melanoma)?
Answer: Its TGI is over 100 µM.

Question: And the TGI (SK-MEL-5 melanoma)?
Answer: Its TGI is over 100000 nM.

Question: And the TGI (A549 NSCLC)?
Answer: The TGI was over 100 µM.

Question: And the TGI (COLO 205 colon)?
Answer: Its TGI is over 100 µM.

Question: And the TGI (EKVX NSCLC)?
Answer: The TGI was over 100 µM.

Question: What about the TGI (OVCAR-3 ovarian) of the same compound?
Answer: Its TGI is over 100000 nM.

Question: What about the TGI (SW-620 colon) of the same compound?
Answer: Its TGI is over 100 µM.

Question: And the TGI (HCC-2998 colon)?
Answer: Its TGI is over 100 µM.

Question: And the TGI (RPMI-8226 leukemia)?
Answer: The TGI was over 100 µM.
